The target in experiment [1] is T1, 11β-HSD1 (Homo sapiens, UniProt P28845). Put plainly: biochemical. The note with it: for inhibition at 0.1 µM: read-out: Average % inhibition at 100 nM.
For another experiment, the target named is T2, CYP2C9 (Homo sapiens, UniProt P11712).
T2 construct: purchased Invitrogen 2859; host or cells: insect cells infected with baculovirus (microsomes)
Put plainly: Biological Test Example 9: CYP2C9 inhibition (Invitrogen kit, fluorogenic OOMR). It counts as in vitro ADME.

The target in experiment [2] is T1, 11β-HSD1. Put plainly: Biological Test Example 4: microsomal 11β-HSD1 in the presence of 50% human plasma. As to conditions: for Shift: IC50 in Test Example 4 divided by IC50 in Test Example 1.
Setting [3] is: Biological Test Example 1 IC50 (nM).
Setting [4] is: IC50 Range, Biological Test Example 1.

T1 sequence (P28845 whole entry): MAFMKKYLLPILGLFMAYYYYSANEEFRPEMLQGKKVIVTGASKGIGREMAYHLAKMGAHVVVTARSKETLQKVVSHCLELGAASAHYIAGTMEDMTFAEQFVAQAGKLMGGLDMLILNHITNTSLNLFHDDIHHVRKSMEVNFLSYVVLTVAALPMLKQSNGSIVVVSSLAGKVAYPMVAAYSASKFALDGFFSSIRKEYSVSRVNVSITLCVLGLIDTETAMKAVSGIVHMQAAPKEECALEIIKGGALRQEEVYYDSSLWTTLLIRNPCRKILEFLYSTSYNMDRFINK
T2 sequence (P11712 whole entry): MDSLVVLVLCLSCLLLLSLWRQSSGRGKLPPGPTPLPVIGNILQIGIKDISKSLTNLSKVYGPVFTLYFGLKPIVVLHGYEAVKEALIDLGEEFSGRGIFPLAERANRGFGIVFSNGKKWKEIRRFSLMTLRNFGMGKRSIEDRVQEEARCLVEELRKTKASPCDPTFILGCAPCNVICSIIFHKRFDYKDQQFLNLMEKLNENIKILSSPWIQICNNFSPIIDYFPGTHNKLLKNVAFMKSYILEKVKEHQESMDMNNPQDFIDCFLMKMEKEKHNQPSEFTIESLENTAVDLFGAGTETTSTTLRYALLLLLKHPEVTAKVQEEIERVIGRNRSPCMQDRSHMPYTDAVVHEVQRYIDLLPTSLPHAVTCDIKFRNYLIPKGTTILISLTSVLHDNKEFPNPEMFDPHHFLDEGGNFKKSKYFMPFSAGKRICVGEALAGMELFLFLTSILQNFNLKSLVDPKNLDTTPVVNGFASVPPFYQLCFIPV

Consider `Cc1cccc(-c2ccc([C@H](C)N3CC[C@](CCCO)(c4ccc(F)cc4)OC3=O)cc2)n1` [EXAMPLE 62, (R)-6-(4-fluorophenyl)-6-(3-hydroxypropyl)-3-((S)-1-(4-(6-methylpyridin-2-yl)phenyl)ethyl)-1,3-oxazinan-2-one], for which the IC50 against 11β-HSD1 [1] (setting [3]) is 0.5 nM; on 11β-HSD1 [1] (setting [4]) it was below 100 nM; against CYP2C9, 10900 nM; at 11β-HSD1 [2], 22.6 nM. Also, the inhibition at 0.1 µM at 11β-HSD1 [1] turned out to be 97.9%. In addition, the Shift on 11β-HSD1 [2] is reported as 44.2.
In the case of `Cc1ccc(-c2ccc([C@H](C)N3CC[C@](CCCO)(c4ccc(F)cc4)OC3=O)cc2)c(C)n1` [EXAMPLE 141, (R)-3-((S)-1-(4-(2,6-dimethylpyridin-3-yl)phenyl)ethyl)-6-(4-fluorophenyl)-6-(3-hydroxypropyl)-1,3-oxazinan-2-one], the concentration for half-maximal inhibition (IC50) against 11β-HSD1 [1] (setting [3]) is 1 nM; at 11β-HSD1 [1] (setting [4]) it was below 100 nM; against CYP2C9 it was above 30000 nM; on 11β-HSD1 [2] it was 6.6 nM. Also, the inhibition at 0.1 µM at 11β-HSD1 [1] stood at 102%. Further, on 11β-HSD1 [2], the Shift amounted to 6.3.
For the molecule `C[C@@H](c1ccc(-c2ccc(C(C)(C)O)nn2)cc1)N1CC[C@](CC(C)(C)O)(c2ccccc2)OC1=O` [EXAMPLE 7, (S)-6-(2-hydroxy-2-methylpropyl)-3-((S)-1-(4-(6-(2-hydroxypropan-2-yl)pyridazin-3-yl)phenyl)ethyl)-6-phenyl-1,3-oxazinan-2-one], the 50% inhibitory concentration (IC50) at 11β-HSD1 [1] (setting [3]) was 4.9 nM; on 11β-HSD1 [1] (setting [4]), below 100 nM; against CYP2C9, 5300 nM; on 11β-HSD1 [2], 4.3 nM. Moreover, on 11β-HSD1 [1], the inhibition at 0.1 µM stood at 93.3%. At 11β-HSD1 [2], the Shift stood at 0.9.
Take `Cc1nc(C)c(-c2ccc([C@H](C)N3CC[C@](CCCO)(c4ccc(F)cc4)OC3=O)cc2)s1` [EXAMPLE 83, (R)-3-((S)-1-(4-(2,4-dimethylthiazol-5-yl)phenyl)ethyl)-6-(4-fluorophenyl)-6-(3-hydroxypropyl)-1,3-oxazinan-2-one]: the half-maximal inhibitory concentration (IC50) is 1 nM against 11β-HSD1 [1] (setting [3]), below 100 nM at 11β-HSD1 [1] (setting [4]), 3900 nM against CYP2C9 and 8.8 nM on 11β-HSD1 [2]. Also, the inhibition at 0.1 µM at 11β-HSD1 [1] is 94.7%. At 11β-HSD1 [2], the Shift is given as 8.9.
Turning to `C[C@@H](c1ccc(-c2ccncn2)cc1)N1CC[C@](CCCO)(c2ccc(F)cc2)OC1=O` [EXAMPLE 128, (R)-6-(4-fluorophenyl)-6-(3-hydroxypropyl)-3-((S)-1-(4-(pyrimidin-4-yl)phenyl)ethyl)-1,3-oxazinan-2-one], the IC50 is 1.1 nM at 11β-HSD1 [1] (setting [3]), below 100 nM at 11β-HSD1 [1] (setting [4]), 3300 nM against CYP2C9 and 8.5 nM at 11β-HSD1 [2]. Besides, at 11β-HSD1 [1], the inhibition at 0.1 µM came to 96.5%.
On to `Cc1cc(-c2ccc([C@H](C)N3CC[C@](C)(c4ccc(F)cc4)OC3=O)cc2)ccn1` (single isomer, unassigned) [EXAMPLE 107.2], for which the IC50 at 11β-HSD1 [1] (setting [3]) is 3.2 nM; against 11β-HSD1 [1] (setting [4]) it was below 100 nM; on CYP2C9, 17500 nM; on 11β-HSD1 [2], 269 nM. On 11β-HSD1 [1], the inhibition at 0.1 µM stood at 93.6%. Besides, at 11β-HSD1 [2], the Shift was determined as 83.8.
For the molecule `C[C@@H](c1ccc(-c2ccnc(N)c2)cc1)N1CC[C@](CCCO)(c2ccccc2)OC1=O` [EXAMPLE 125, (R)-3-((S)-1-(4-(2-aminopyridin-4-yl)phenyl)ethyl)-6-(3-hydroxypropyl)-6-phenyl-1,3-oxazinan-2-one], the 50% inhibitory concentration (IC50) on 11β-HSD1 [1] (setting [3]) is 0.6 nM; against 11β-HSD1 [1] (setting [4]) it was below 100 nM; against CYP2C9, 4300 nM; on 11β-HSD1 [2] it was 6.8 nM. For the same molecule, the inhibition at 0.1 µM on 11β-HSD1 [1] is 98.6%. In addition, the Shift on 11β-HSD1 [2] worked out at 12.3.
Take `Cc1cc(-c2ccc([C@H](C)N3CC[C@](CC(C)(C)O)(c4ccc(F)cc4)OC3=O)cc2)cc(C)[n+]1[O-]` [EXAMPLE 123, 4-(4-((S)-1-((S)-6-(4-fluorophenyl)-6-(2-hydroxy-2-methylpropyl)-2-oxo-1,3-oxazinan-3-yl)ethyl)phenyl)-2,6-dimethylpyridine 1-oxide]: the half-maximal inhibitory concentration (IC50) was 6.6 nM at 11β-HSD1 [1] (setting [3]), below 100 nM on 11β-HSD1 [1] (setting [4]), 9100 nM at CYP2C9 and 11.1 nM at 11β-HSD1 [2]. Also, at 11β-HSD1 [1], the inhibition at 0.1 µM came to 93.6%. For the same molecule, the Shift on 11β-HSD1 [2] stood at 1.7.

By IC50 is commonly meant the point on the concentration scale where inhibition reaches its midpoint. As a reminder, the inhibition is the drop in the measured response relative to a control, in per cent.

These data come from patent publication US8569292B2, “Cyclic inhibitors of 11β-hydroxysteroid dehydrogenase 1” (Vitae Pharmaceuticals, Inc., priority 2008, dated 2013).
